# In PMC8980233, “Differentiating the Neuropharmacological Properties of Nicotinic Acetylcholine Receptor-Activating Alkaloids” (Frontiers in Pharmacology, 2022):
# “Also recorded” adds a separate entry of the source.
# Experiments:
# [1] = 0.5 mg/kg; ref Petersen et al. (1984); cited from earlier work
# α7 nAChR = α7 nAChR (Homo sapiens, UniProt P36544); test: nAChR functional assay, automated patch-clamp; assay type: cell-based; conditions: mean ± S.D.; no effect = up to 33 μM
# Method: Electrophysiological responses were recorded using an automated patch-clamp Patchliner Octo® system (Nanion Technologies, Munich, Germany) equipped with two EPC-10 Quadro patch-clamp amplifiers (HEKA Elektronik, Lambrecht, Germany) as described by ([Alijevic et al., 2020]). In brief, Chinese hamster ovary (CHO) or human embryonic kidney-293 (HEK-293) cells stably expressing human nAChRs (Charles River Laboratories, Wilmington, MA, United States) were maintained in DMEM/F12 medium (Gibco, Thermo Fisher Scientific, Waltham, MA, United States) supplemented with 10% heat-inactivated fetal bovine serum (FBS; Gibco) and penicillin–streptomycin (100 U/mL and 0.1 mg/ml, respectively; Sigma-Aldrich, St. Louis, MO, United States) at 37°C in 5% CO2 and 70% humidity. The following selection antibiotics were used for the cell lines: G418 (0.25 mg/ml; Sigma-Aldrich) and Zeocin^TM (0.4 mg/ml; InvivoGen, San Diego, CA, United States) for α7/Ric3 nAChR and α3β4 nAChR cells; puromycin (8 μg/ml; InvivoGen) and hygromycin B (0.4 mg/ml; Gibco) for α4β2 nAChR cells; and G418 (0.5 mg/ml), puromycin (0.25 μg/ml), and hygromycin B (0.02 mg/ml) for α6/3β2/β3 nAChR cells. The cells were used for characterizing nAChR pharmacology, because no endogenous ionotropic nicotinic receptors are found ([Roncarati et al., 2008]; [Papke and Smith-Maxwell, 2009]; [Kirsch et al., 2016]; [Scheffel et al., 2018]). The subunit distributions in the cells have been previously described ([Alijevic et al., 2020]). The human nAChRs were selected due to the lack of commercially available nAChR expression systems for mouse or zebrafish. The translatability of findings between zebrafish and human nAChR activities have been previously reported ([Papke and Smith-Maxwell, 2009]; [Papke et al., 2012]; [Alijevic et al., 2020]).
# On the day of the experiment, nAChR-expressing cells were suspended in extracellular solution (in mM: 140 NaCl, 4KCl, one MgCl2, two CaCl2, five glucose, and 10 HEPES, adjusted to pH 7.4 with NaOH (298 mOsmol)), then placed in the Patchliner Octo® system. The internal solution contained in mM: 50 KCl, 60 kF, 10 NaCl, 20 EGTA, and 10 HEPES, adjusted to pH 7.2 with KOH (285 mOsmol). […] Data were analyzed using the Patchmaster software and corrected for leak current. The data acceptance criteria were as follows: seal resistance >100 MΩ; seal resistance loss variation <50%; access resistance <20 MΩ; and minimum current amplitude elicited by maximal effect concentration acetylcholine >50 pA. Offline data analysis was performed in OpenOffice™ (v4.1.2; The Apache Software Foundation, Wakefield, MA, United States). Data are presented as mean ± S.D. All experiments were performed at room temperature (24°C) and repeated at least three times. Igor Pro (v6.2.2.2; WaveMetrics, Lake Oswego, OR, United States) or Prism (v8.2.1) were used for assessing the concentration–response curves.
# Chain of α7 nAChR (P36544 23-502): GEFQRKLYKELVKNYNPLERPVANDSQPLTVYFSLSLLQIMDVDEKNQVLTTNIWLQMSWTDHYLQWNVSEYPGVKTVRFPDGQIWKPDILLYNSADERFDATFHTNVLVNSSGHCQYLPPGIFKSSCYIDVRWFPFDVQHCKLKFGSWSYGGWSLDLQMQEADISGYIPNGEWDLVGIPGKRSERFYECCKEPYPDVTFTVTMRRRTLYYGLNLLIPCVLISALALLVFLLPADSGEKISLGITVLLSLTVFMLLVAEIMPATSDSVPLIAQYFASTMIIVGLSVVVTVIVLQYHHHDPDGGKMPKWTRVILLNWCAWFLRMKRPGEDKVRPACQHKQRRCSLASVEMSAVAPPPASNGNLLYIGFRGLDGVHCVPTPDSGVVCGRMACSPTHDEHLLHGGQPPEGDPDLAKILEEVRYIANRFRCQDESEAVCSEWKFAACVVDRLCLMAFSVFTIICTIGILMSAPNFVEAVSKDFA
Structure (SMILES),plasma concentration [1] [µM],α7 nAChR EC50 in µM (α7 nAChR)
"CN1CCC[C@H]1c1cccnc1 [Nicotine, (-)-Nicotine]",5 to 6,–
"CN1C(=O)CC[C@H]1c1cccnc1 [Cotinine, (-)-cotinine]",–,no detectable activities; also recorded: No effect*
